# Assay results: ChEMBL document CHEMBL3124868, “Design, synthesis, pharmacological evaluation, QSAR analysis, molecular modeling and ADMET of novel donepezil-indolyl hybrids as multipotent cholinesterase/monoamine oxidase inhibitors for the potential treatment of Alzheimer's disease” (Eur J Med Chem, 2014)
# Tests used:
# [1] = target: T1, Amine oxidase [flavin-containing] A (Homo sapiens, UniProt P21397); experiment: Inhibition of human recombinant MAO-A using tyramine as substrate preincubated for 30 mins followed by substrate addition measured for 1 hr by fluorometric assay
# T1 sequence (P21397 whole entry): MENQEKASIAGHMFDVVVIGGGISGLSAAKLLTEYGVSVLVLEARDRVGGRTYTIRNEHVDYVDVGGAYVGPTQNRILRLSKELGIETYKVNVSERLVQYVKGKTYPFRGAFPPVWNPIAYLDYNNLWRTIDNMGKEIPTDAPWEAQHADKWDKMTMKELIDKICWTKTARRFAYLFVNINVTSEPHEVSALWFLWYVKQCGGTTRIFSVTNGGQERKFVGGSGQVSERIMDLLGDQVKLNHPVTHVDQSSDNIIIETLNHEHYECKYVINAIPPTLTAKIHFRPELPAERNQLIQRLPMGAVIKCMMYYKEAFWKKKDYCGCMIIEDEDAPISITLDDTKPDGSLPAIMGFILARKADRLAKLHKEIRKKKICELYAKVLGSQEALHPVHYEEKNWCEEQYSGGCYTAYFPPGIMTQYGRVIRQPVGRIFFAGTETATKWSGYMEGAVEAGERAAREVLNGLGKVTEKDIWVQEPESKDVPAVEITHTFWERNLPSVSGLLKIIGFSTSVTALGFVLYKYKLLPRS
# [2] = target: T2, Amine oxidase [flavin-containing] B (Homo sapiens, UniProt P27338); experiment: Inhibition of human recombinant MAO-B using tyramine as substrate preincubated for 30 mins followed by substrate addition measured for 1 hr by fluorometric assay
# T2 sequence (P27338 whole entry): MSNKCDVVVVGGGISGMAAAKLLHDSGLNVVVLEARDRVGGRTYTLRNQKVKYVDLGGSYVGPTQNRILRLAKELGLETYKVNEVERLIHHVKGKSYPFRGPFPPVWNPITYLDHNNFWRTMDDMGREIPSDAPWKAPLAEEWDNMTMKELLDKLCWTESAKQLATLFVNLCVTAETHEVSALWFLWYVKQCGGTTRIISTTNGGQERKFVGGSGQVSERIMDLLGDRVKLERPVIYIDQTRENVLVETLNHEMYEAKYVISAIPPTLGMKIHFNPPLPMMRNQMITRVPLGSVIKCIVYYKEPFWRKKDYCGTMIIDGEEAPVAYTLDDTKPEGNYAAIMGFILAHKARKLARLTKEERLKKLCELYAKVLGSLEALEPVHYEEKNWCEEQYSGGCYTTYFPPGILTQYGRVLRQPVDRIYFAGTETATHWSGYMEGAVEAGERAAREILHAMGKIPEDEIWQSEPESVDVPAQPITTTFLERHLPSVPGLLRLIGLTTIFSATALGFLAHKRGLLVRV
# [3] = Selectivity ratio of IC50 for equine serum BuChE to IC50 for electric eel AChE
# Cholinesterase = Cholinesterase (Equus caballus, UniProt P81908); experiment: Inhibition of equine serum BuChE using butyrylthiocholine iodide as substrate preincubated for 20 mins followed by substrate addition measured after 25 mins by Ellman's method
# Acetylcholinesterase = Acetylcholinesterase (Electrophorus electricus, UniProt O42275); experiment: Inhibition of electric eel AChE using acetylthiocholine iodide as substrate preincubated for 20 mins followed by substrate addition measured after 5 mins by Ellman's method
# Homo sapiens = organism: Homo sapiens; experiment: Selectivity ratio of IC50 for human recombinant MAO-B to IC50 for human recombinant MAO-A
# Acetylcholinesterase, sequence (O42275 whole entry): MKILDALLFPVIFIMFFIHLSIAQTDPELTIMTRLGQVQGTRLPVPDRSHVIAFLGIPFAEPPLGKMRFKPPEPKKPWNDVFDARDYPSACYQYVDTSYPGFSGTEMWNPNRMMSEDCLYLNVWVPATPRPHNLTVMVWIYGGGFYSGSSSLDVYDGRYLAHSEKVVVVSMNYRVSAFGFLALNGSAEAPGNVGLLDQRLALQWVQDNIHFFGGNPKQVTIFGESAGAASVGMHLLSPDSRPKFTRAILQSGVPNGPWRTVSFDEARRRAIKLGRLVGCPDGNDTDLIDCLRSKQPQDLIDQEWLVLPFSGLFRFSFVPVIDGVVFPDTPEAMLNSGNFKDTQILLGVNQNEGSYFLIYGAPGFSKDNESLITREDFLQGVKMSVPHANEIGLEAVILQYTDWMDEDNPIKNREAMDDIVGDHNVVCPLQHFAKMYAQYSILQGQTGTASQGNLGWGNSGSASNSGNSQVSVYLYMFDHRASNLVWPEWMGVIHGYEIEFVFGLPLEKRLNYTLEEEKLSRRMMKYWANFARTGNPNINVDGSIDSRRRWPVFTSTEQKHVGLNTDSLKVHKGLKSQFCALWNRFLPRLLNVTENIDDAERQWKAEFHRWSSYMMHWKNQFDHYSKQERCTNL
# Cholinesterase, sequence (P81908 whole entry): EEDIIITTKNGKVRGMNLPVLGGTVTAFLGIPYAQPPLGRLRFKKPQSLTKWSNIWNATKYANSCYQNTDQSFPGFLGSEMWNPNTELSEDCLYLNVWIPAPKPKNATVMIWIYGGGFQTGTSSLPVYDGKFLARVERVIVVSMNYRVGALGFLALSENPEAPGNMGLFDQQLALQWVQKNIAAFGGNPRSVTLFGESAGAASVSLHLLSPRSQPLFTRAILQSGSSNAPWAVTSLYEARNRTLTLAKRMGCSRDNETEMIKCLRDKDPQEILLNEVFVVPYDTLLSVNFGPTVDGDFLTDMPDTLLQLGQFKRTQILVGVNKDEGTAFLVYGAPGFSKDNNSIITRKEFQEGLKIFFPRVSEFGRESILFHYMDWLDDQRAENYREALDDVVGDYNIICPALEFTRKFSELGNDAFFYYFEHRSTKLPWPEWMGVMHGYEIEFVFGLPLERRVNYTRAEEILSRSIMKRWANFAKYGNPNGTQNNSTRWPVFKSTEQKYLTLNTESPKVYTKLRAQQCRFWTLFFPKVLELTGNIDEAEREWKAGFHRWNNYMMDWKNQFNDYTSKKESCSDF
Compound,IC50 ([1]; read-out: IC50) [µM],IC50 [2] [µM],Ratio IC50 [3],IC50 (Cholinesterase) [µM],IC50 (Acetylcholinesterase) [µM],Ratio IC50 (Homo sapiens),IC50 ([1]; read-out: pIC50 (converted)) [µM]
C#CCN(C)Cc1cc2cc(OCCCC3CCN(Cc4ccccc4)CC3)ccc2n1C,0.0042,,,,,,
Cn1c(C(=O)N2CCOCC2)cc2cc(OCCCC3CCN(Cc4ccccc4)CC3)ccc21,> 100,> 100,> 370,> 100,0.27,> 1,
Cn1c(CNc2ccccc2)cc2cc(OCCCC3CCN(Cc4ccccc4)CC3)ccc21,> 100,> 100,10,0.85,0.084,> 1,100
Cn1c(CNCc2ccccc2)cc2cc(OCCCC3CCN(Cc4ccccc4)CC3)ccc21,> 100,> 100,2,0.29,0.14,> 1,100
COc1ccc2c(c1)cc(CNCc1ccccc1)n2C,> 100,> 100,1.5,22.9,15.2,> 1,100
Cn1c(C(=O)Nc2ccccc2)cc2cc(OCCCC3CCN(Cc4ccccc4)CC3)ccc21,> 100,> 100,> 1,> 100,> 100,> 1,
Cn1c(C(=O)O)cc2cc(OCCCC3CCN(Cc4ccccc4)CC3)ccc21,> 100,> 100,> 250,> 100,0.4,> 1,
C#CCNCc1cc2cc(OCCCC3CCN(Cc4ccccc4)CC3)ccc2n1C,0.0055,0.15,4.4,0.83,0.19,27.3,
C#CCNC(=O)c1cc2cc(OCCCC3CCN(Cc4ccccc4)CC3)ccc2n1C,> 100,> 100,> 770,> 100,0.13,> 1,
Cn1c(CO)cc2cc(OCCCC3CCN(Cc4ccccc4)CC3)ccc21,4.26,> 100,> 416,> 100,0.24,> 23,
COc1ccc2c(c1)cc(C(=O)NCc1ccccc1)n2C,> 100,> 100,> 1,> 100,> 100,> 1,
CCOC(=O)c1cc2cc(OCCCC3CCN(Cc4ccccc4)CC3)ccc2n1C,1.53,> 100,> 370,> 100,0.27,> 65,
C=CCNCc1cc2cc(OCCCC3CCN(Cc4ccccc4)CC3)ccc2n1C,0.98,15.3,3.3,0.46,0.14,15.6,
Cn1c(C(=O)NCc2ccccc2)cc2cc(OCCCC3CCN(Cc4ccccc4)CC3)ccc21,> 100,> 100,> 1,> 100,> 100,> 1,
Cn1c(CN2CCOCC2)cc2cc(OCCCC3CCN(Cc4ccccc4)CC3)ccc21,4.4,> 100,7.9,0.79,0.1,> 22.7,
